In patent publication US11851426B2, “Bicyclic amines as CDK2 inhibitors” (Incyte Corporation, priority 2019, dated 2023):

target: CDK2/Cyclin E1 (Homo sapiens (Human), UniProt P24941); experiment: CDK2/Cyclin E1 HTRF enzyme activity assay; assay type: biochemical; conditions: 1 mM ATP; CDK2/Cyclin E1 0.25 nM; 60 minutes at room temperature
In short: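 Full-length GST-CDK2 co-expressed with FLAG-Cyclin E1 (baculovirus), 0.25 nM, reacted with 50 nM ULight-4E-BP1 (Thr37/46) peptide at 50 μM or 1 mM ATP in HEPES pH 7.5 buffer, 60 min, room temperature. EDTA plus Eu-anti-phospho-4E-BP1 antibody stopped the reaction; HTRF read after 1 h; IC50 from three- or four-parameter fits.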

IC50 [nM] | Compound
≤ 20 | C[C@@H]1CN(S(C)(=O)=O)CC[C@@H]1Nc1nc2cnc(-c3cn[nH]c3)c(OC3CCC(F)(F)CC3)n2n1 [Example 110, 5-((4,4-Difluorocyclohexyl)oxy)-N-((3R,4S)-3-methyl-1-(methylsulfonyl)piperidin-4-yl)-6-(1H-pyrazol-4-yl)-[1,2,4]triazolo[1,5-a]pyrazin-2-amine]
≤ 20 | C[C@@H]1CN(S(C)(=O)=O)CC[C@@H]1Nc1nc2cnc(-c3cn[nH]c3)c(OCC3CC3)n2n1 [Example 115, 5-(Cyclopropylmethoxy)-N-((3R,4S)-3-methyl-1-(methylsulfonyl)piperidin-4-yl)-6-(1H-pyrazol-4-yl)-[1,2,4]triazolo[1,5-a]pyrazin-2-amine]
≤ 20 | COCCN1CCN(c2c(-c3cn[nH]c3)ncn3nc(NC4CCN(S(C)(=O)=O)CC4)nc23)CC1 [Example 51, 8-(4-(2-Methoxyethyl)piperazin-1-yl)-N-(1-(methylsulfonyl)piperidin-4-yl)-7-(1H-pyrazol-4-yl)-[1,2,4]triazolo[1,5-c]pyrimidin-2-amine]
≤ 20 | CS(=O)(=O)N1CCC(Nc2nc3c(OCC4CCOC4)c(-c4cn[nH]c4)ccn3n2)CC1 (stereo not drawn) [Example 11, N-(1-(methylsulfonyl)piperidin-4-yl)-7-(1H-pyrazol-4-yl)-8-((tetrahydrofuran-3-yl)methoxy)-[1,2,4]triazolo[1,5-a]pyridin-2-amine]
≤ 20 | CC(C)Oc1c(-c2cn[nH]c2)ccc2nc(N[C@H]3CCN(S(=O)(=O)C4CC4)C[C@H]3C)nn12 [Example 97, N-((3R,4S)-1-(Cyclopropylsulfonyl)-3-methylpiperidin-4-yl)-5-isopropoxy-6-(1H-pyrazol-4-yl)-[1,2,4]triazolo[1,5-a]pyridin-2-amine]
≤ 20 | CS(=O)(=O)N1CCC(Nc2nc3cnc(-c4cn[nH]c4)c(N4CCCCC4)n3n2)CC1 [Example 126, N-(1-(Methylsulfonyl)piperidin-4-yl)-5-(piperidin-1-yl)-6-(1H-pyrazol-4-yl)-[1,2,4]triazolo[1,5-a]pyrazin-2-amine]
≤ 20 | C[C@@H]1CN(S(C)(=O)=O)CC[C@@H]1Nc1nc2cnc(-c3cn[nH]c3)c(N3CCCCC3)n2n1 [Example 125, N-((3R,4S)-3-Methyl-1-(methylsulfonyl)piperidin-4-yl)-5-(piperidin-1-yl)-6-(1H-pyrazol-4-yl)-[1,2,4]triazolo[1,5-a]pyrazin-2-amine]
≤ 20 | COC(=O)N1CCC(Oc2c(-c3cn[nH]c3)ccn3nc(NC4CCN(S(C)(=O)=O)CC4)nc23)CC1 [Example 18, Methyl 4-((2-((1-(methylsulfonyl)piperidin-4-yl)amino)-7-(1H-pyrazol-4-yl)-[1,2,4]triazolo[1,5-a]pyridin-8-yl)oxy)piperidine-1-carboxylate]
≤ 20 | CC(C)Oc1c(-c2cn[nH]c2)ncn2nc(N[C@H]3CCN(S(=O)(=O)CCN4CCCC4)C[C@H]3C)nc12 [Example 38, 8-isopropoxy-N-((3R,4S)-3-methyl-1-((2-(pyrrolidin-1-yl)ethyl)sulfonyl)piperidin-4-yl)-7-(1H-pyrazol-4-yl)-[1,2,4]triazolo[1,5-c]pyrimidin-2-amine]
≤ 20 | [2H]C([2H])([2H])C([2H])([2H])Oc1c(-c2cn[nH]c2)ccn2nc(N[C@H]3CCN(S(C)(=O)=O)C[C@H]3C)nc12 [Example 41, 8-(ethoxy-d5)-N-((3R,4S)-3-methyl-1-(methylsulfonyl)piperidin-4-yl)-7-(1H-pyrazol-4-yl)-[1,2,4]triazolo[1,5-a]pyridin-2-amine]
≤ 20 | CC(C)Oc1c(-c2cn[nH]c2)ncc2nc(N[C@H]3CCN(S(=O)(=O)C4CC4)C[C@H]3C)nn12 [Example 89, N-((3R,4S)-1-(Cyclopropylsulfonyl)-3-methylpiperidin-4-yl)-5-isopropoxy-6-(1H-pyrazol-4-yl)-[1,2,4]triazolo[1,5-a]pyrazin-2-amine]
≤ 20 | CCCOc1c(-c2cn[nH]c2)ccc2nc(NC3CCN(S(C)(=O)=O)CC3)nn12 [Example 78, N-(1-(Methylsulfonyl)piperidin-4-yl)-5-propoxy-6-(1H-pyrazol-4-yl)-[1,2,4]triazolo[1,5-a]pyridin-2-amine]
≤ 20 | C[C@@H]1CN(S(C)(=O)=O)CC[C@@H]1Nc1nc2ccc(-c3cn[nH]c3)c(OC3CCC(F)(F)C3)n2n1 (stereo partly drawn) [Example 75, 5-((3,3-Difluorocyclopentyl)oxy)-N-((3R,4S)-3-methyl-1-(methylsulfonyl)piperidin-4-yl)-6-(1H-pyrazol-4-yl)-[1,2,4]triazolo[1,5-a]pyridin-2-amine]
≤ 20 | CS(=O)(=O)N1CCC(Nc2nc3c(OCC4CC4)c(-c4cn[nH]c4)ccn3n2)CC1 [Example 4, 8-(cyclopropylmethoxy)-N-(1-(methylsulfonyl)piperidin-4-yl)-7-(1H-pyrazol-4-yl)-[1,2,4]triazolo[1,5-a]pyridin-2-amine]
≤ 20 | CS(=O)(=O)N1CCC(Nc2nc3c(-c4ccc(F)cc4)c(-c4cn[nH]c4)ccn3n2)CC1 [Example 25, 8-(4-fluorophenyl)-N-(1-(methylsulfonyl)piperidin-4-yl)-7-(1H-pyrazol-4-yl)-[1,2,4]triazolo[1,5-a]pyridin-2-amine]
≤ 20 | C[C@@H]1CN(S(C)(=O)=O)CC[C@@H]1Nc1nc2cnc(-c3cn[nH]c3)c(OC3CCCC3)n2n1 [Example 140, 5-(Cyclopentyloxy)-N-((3R,4S)-3-methyl-1-(methylsulfonyl)piperidin-4-yl)-6-(1H-pyrazol-4-yl)-[1,2,4]triazolo[1,5-a]pyrazin-2-amine]
≤ 20 | C[C@@H]1CN(S(=O)(=O)C2CC2)CC[C@@H]1Nc1nc2cnc(-c3cn[nH]c3)c(OC3CCOCC3)n2n1 [Example 92, N-((3R,4S)-1-(Cyclopropylsulfonyl)-3-methylpiperidin-4-yl)-6-(1H-pyrazol-4-yl)-5-((tetrahydro-2H-pyran-4-yl)oxy)-[1,2,4]triazolo[1,5-a]pyrazin-2-amine]
≤ 20 | CCN(C)CCCCS(=O)(=O)N1CC[C@H](Nc2nc3c(OC(C)C)c(-c4cn[nH]c4)ncn3n2)[C@H](C)C1 [Example 65, N-((3R,4S)-1-((4-(Ethyl(methyl)amino)butyl)sulfonyl)-3-methylpiperidin-4-yl)-8-isopropoxy-7-(1H-pyrazol-4-yl)-[1,2,4]triazolo[1,5-c]pyrimidin-2-amine]
≤ 20 | CC(C)Oc1c(-c2cn[nH]c2)ncn2nc(N[C@H]3CCN(S(=O)(=O)CCCN(C)C)C[C@H]3C)nc12 [Example 56, N-((3R,4S)-1-((3-(Dimethylamino)propyl)sulfonyl)-3-methylpiperidin-4-yl)-8-isopropoxy-7-(1H-pyrazol-4-yl)-[1,2,4]triazolo[1,5-c]pyrimidin-2-amine]

Compound | IC50 [nM]
CC(C)COc1c(-c2cn[nH]c2)ccn2nc(NC3CCN(S(C)(=O)=O)CC3)nc12 [Example 3, 8-isobutoxy-N-(1-(methylsulfonyl)piperidin-4-yl)-7-(1H-pyrazol-4-yl)-[1,2,4]triazolo[1,5-a]pyridin-2-amine] | ≤ 20
CC(C)COc1c(-c2cn[nH]c2)ccc2nc(NC3CCN(S(C)(=O)=O)CC3)nn12 [Example 79, 5-Isobutoxy-N-(1-(methylsulfonyl)piperidin-4-yl)-6-(1H-pyrazol-4-yl)-[1,2,4]triazolo[1,5-a]pyridin-2-amine] | ≤ 20
